Target: T1, hCXCR2-CHO overexpressing membranes (Homo sapiens, UniProt P25025)
T1 construct: purchased Biosignal; host or cells: CHO cells (membranes)
T1 sequence (P25025 1-360): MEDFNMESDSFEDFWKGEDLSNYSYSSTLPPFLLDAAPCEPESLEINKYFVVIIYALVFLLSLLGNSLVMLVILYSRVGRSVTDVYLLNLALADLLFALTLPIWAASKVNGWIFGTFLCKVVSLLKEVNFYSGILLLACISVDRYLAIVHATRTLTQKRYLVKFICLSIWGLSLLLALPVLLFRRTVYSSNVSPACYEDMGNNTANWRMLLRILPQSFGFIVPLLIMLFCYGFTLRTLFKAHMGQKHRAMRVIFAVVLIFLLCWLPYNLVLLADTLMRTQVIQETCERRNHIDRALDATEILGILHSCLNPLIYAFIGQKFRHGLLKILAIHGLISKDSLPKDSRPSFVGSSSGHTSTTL
Assay: CXCR2 SPA Assay
Format: binding
Settings: [125I]-IL-8 0.1 nM
Method: For each well of a 96 well plate, a reaction mixture of 4 μg hCXCR2-CHO overexpressing membranes (Biosignal) and 200 μg/well WGA-SPA beads (Amersham) in 100 μl was prepared in CXCR2 assay buffer (25 mM HEPES, pH 7.4, 2 mM CaCl2, 1 mM MgCl2). A 0.4 nM stock of ligand, [125I]-IL-8 (NEN), was prepared in the CXCR2 assay buffer. 20× stock solutions of test compounds were prepared in DMSO (Sigma). A 6× stock solution of GRO-α (R&D) was prepared in CXCR2 assay buffer. The above solutions were added to a 96-well assay plate (PerkinElmer or Corning) as follows: 10 μl test compound or DMSO, 40 ul CXCR2 assay buffer or GRO-α stock, 100 μl of reaction mixture, 50 μl of ligand stock (Final [Ligand]=0.1 nM). When 40× stock solutions of test compounds in DMSO were prepared, then the above protocol was used except instead 5 μl test compound or DMSO and 45 μl CXCR2 assay buffer were used. The assay plates were shaken for 5 minutes on a plate shaker, then incubated for 2-8 hours before cpm/well were determined in Microbeta Trilux counter (PerkinElmer). % Inhibition of total binding minus non-specific binding (250 nM Gro-α or 50 μM antagonist) was determined and IC50 values calculated.

- Ki: 0.8 nM
SMILES: CC[C@@H](Nc1c(Nc2cccc(C(=O)N(C)C)c2O)c(=O)c1=O)c1cc(C(C)C)co1 [Example 360.106]

Source: US7947720B2, “3,4-di-substituted cyclobutene-1,2-diones as CXC-chemokine receptor ligands” (Schering Corporation, priority 2001, dated 2011)
